Measurements: ChEMBL document CHEMBL5154672, “Design and synthesis of HDAC inhibitors to enhance the therapeutic effect of diffuse large B-cell lymphoma by improving metabolic stability and pharmacokinetic characteristics” (Eur J Med Chem, 2022)
≈ marks a conversion by molar mass, not a printed value.

Legend:
TMD8 [1] = test: Antiproliferative activity against human TMD8 cells assessed as remaining cell activity at 2 uM incubated for 72 hrs by luminescence assay relative to control; type: functional
HuT78 = test: Antiproliferative activity against human HuT78 cells incubated for 72 hrs by luminescence assay; type: functional, cell-based; details: HuT78, 72 h
Histone deacetylase 8 = Histone deacetylase 8 (Homo sapiens, UniProt Q9BY41); test: Inhibition of HDAC8 (unknown origin) using RHK(Ac)K(Ac)AMC fluorogenic peptide as substrate preincubated for 10 mins followed by substrate addition for 2 hr in presence of ATP by fluoroscence based assay
Histone deacetylase 8, sequence (Q9BY41 whole entry): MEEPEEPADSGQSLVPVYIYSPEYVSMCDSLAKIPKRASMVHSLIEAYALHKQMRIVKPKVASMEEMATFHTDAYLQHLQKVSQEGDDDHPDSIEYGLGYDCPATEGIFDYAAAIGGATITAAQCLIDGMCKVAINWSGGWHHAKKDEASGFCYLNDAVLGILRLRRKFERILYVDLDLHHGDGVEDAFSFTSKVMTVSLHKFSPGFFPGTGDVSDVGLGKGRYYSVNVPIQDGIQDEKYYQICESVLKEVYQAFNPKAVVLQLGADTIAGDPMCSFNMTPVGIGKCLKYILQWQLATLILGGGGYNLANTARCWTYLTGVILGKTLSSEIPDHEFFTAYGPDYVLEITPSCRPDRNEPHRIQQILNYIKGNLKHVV

TMD8 [2] = test: Induction of apoptosis in human TMD8 cells assessed as necrotic cells at 1 uM incubated for 24 hrs by Annexin V-FITC/PI staining based flow cytometric analysis (reference value: 1.85%); type: functional
SK-OV-3 = test: Antiproliferative activity against human SK-OV-3 cells incubated for 72 hrs by luminescence assay; type: functional, cell-based; details: SK-OV-3, 72 h
[3] = Half life in ICR mouse at 25 mg/kg, po measured upto 24 hrs by LC-MS/MS analysis; type: ADME, organism-based; details: in vivo
[4] = Metabolic stability in dog liver microsomes assessed as half life measured for 75 to 130 mins by LC-MS/MS analysis; type: ADME, Canis lupus familiaris, Microsome; details: time 75-130 min
TMD8 [5] = test: Induction of apoptosis in human TMD8 cells assessed as late apoptotic cells at 2 uM incubated for 24 hrs by Annexin V-FITC/PI staining based flow cytometric analysis (reference value: 1.54%); type: functional
Histone deacetylase 2 = Histone deacetylase 2 (Homo sapiens, UniProt Q92769); test: Inhibition of HDAC2 (unknown origin) using RHKK(Ac)AMC fluorogenic peptide as substrate preincubated for 10 mins followed by substrate addition for 1 hr in presence of ATP by fluoroscence based assay
Histone deacetylase 2, sequence (Q92769 whole entry): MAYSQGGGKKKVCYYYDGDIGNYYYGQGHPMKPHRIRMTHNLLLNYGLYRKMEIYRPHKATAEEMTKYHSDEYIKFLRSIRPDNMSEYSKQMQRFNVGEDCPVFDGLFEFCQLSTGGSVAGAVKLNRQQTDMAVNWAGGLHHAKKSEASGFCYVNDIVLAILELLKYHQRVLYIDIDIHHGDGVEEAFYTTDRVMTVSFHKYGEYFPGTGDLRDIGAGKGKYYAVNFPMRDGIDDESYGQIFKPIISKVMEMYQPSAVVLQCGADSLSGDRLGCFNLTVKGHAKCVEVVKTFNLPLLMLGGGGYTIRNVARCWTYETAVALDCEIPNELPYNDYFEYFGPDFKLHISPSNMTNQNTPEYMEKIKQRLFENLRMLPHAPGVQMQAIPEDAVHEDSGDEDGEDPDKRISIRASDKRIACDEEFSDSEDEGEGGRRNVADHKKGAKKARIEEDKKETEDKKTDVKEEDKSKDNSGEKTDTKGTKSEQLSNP

TMD8 [6] = test: Induction of apoptosis in human TMD8 cells assessed as necrotic cells at 0.5 uM incubated for 24 hrs by Annexin V-FITC/PI staining based flow cytometric analysis (RVB=1.85%); type: functional
[7] = Aqueous solubility of the compound; type: physicochemical; details: aqueous medium
[8] = Metabolic stability in rat liver microsomes assessed as intrinsic clearance measured for 75 to 130 mins by LC-MS/MS analysis; type: ADME, Microsome; details: time 75-130 min, read-out: CLH
[9] = AUC (0 to t) in CB.17 SCID mouse xenografted with human TMD8 cells at 50 mg/kg, po measured upto 24 hrs by LC-MS/MS analysis; type: ADME, organism-based; parameters: time < 24 hrs, dose 50 mg/kg, route po; details: in vivo
TMD8 [10] = test: Induction of apoptosis in human TMD8 cells assessed as necrotic cells at 2 uM incubated for 24 hrs by Annexin V-FITC/PI staining based flow cytometric analysis (reference value: 1.85%); type: functional
[11] = Metabolic stability in human liver microsomes assessed as intrinsic clearance measured for 75 to 130 mins by LC-MS/MS analysis; type: ADME, Microsome; details: liver microsomes, time 75-130 min, read-out: CLH
[12] = AUC (0 to infinity) in CB.17 SCID mouse xenografted with human TMD8 cells at 50 mg/kg, po measured upto 24 hrs by LC-MS/MS analysis; type: ADME, organism-based; parameters: dose 50 mg/kg, time < 24 hrs, route po; details: in vivo
A549 [13] = test: Antiproliferative activity against human A549 cells assessed as remaining cell activity at 2 uM incubated for 72 hrs by luminescence assay relative to control; type: functional
A549 [14] = test: Antiproliferative activity against human A549 cells incubated for 72 hrs by luminescence assay; type: functional, cell-based; details: A549, 72 h
[15] = AUC (0 to infinity) in CB.17 SCID mouse xenografted with human TMD8 cells at 100 mg/kg, po measured upto 24 hrs by LC-MS/MS analysis; type: ADME, organism-based; parameters: time < 24 hrs, dose 100 mg/kg, route po; details: in vivo
[16] = Cmax in CB.17 SCID mouse xenografted with human TMD8 cells at 100 mg/kg, po measured upto 24 hrs by LC-MS/MS analysis; type: ADME, organism-based; parameters: time < 24 hrs, dose 100 mg/kg, route po; details: in vivo
TMD8 [17] = test: Induction of apoptosis in human TMD8 cells assessed as early apoptotic cells at 4 uM incubated for 24 hrs by Annexin V-FITC/PI staining based flow cytometric analysis (reference value: 0.24%); type: functional
[18] = AUC (0 to infinity) in ICR mouse at 25 mg/kg, po measured upto 24 hrs by LC-MS/MS analysis; type: ADME, organism-based; parameters: time < 24 hrs, dose 25 mg/kg, route po; details: in vivo
[19] = MRT (0 to t) in CB.17 SCID mouse xenografted with human TMD8 cells at 100 mg/kg, po measured upto 24 hrs by LC-MS/MS analysis; type: ADME, organism-based; details: in vivo
[20] = Metabolic stability in rat liver microsomes assessed as half life measured for 75 to 130 mins by LC-MS/MS analysis; type: ADME, Microsome; details: time 75-130 min
[21] = Cmax in CB.17 SCID mouse xenografted with human TMD8 cells at 50 mg/kg, po measured upto 24 hrs by LC-MS/MS analysis; type: ADME, organism-based; parameters: dose 50 mg/kg, time < 24 hrs, route po; details: in vivo
TMD8 [22] = test: Induction of apoptosis in human TMD8 cells assessed as necrotic cells at 4 uM incubated for 24 hrs by Annexin V-FITC/PI staining based flow cytometric analysis (reference value: 1.85%); type: functional
HCT-116 = test: Antiproliferative activity against human HCT-116 cells incubated for 72 hrs by luminescence assay; type: functional, cell-based; details: HCT-116, 72 h
[23] = Metabolic stability in monkey liver microsomes assessed as intrinsic clearance measured for 75 to 130 mins by LC-MS/MS analysis; type: ADME, Macaca fascicularis, Microsome; details: cynomolgus monkey, time 75-130 min, read-out: CLH
[24] = MRT (0 to t) in CB.17 SCID mouse xenografted with human TMD8 cells at 25 mg/kg, po measured upto 24 hrs by LC-MS/MS analysis; type: ADME, organism-based; details: in vivo
[25] = Cmax in ICR mouse at 25 mg/kg, po measured upto 24 hrs by LC-MS/MS analysis; type: ADME, organism-based; parameters: time < 24 hrs, dose 25 mg/kg, route po; details: in vivo
MDA-MB-231 [26] = test: Antiproliferative activity against human MDA-MB-231 cells assessed as remaining cell activity at 2 uM incubated for 72 hrs by luminescence assay relative to control; type: functional
DOHH-2 = test: Antiproliferative activity against human DOHH-2 cells incubated for 72 hrs by luminescence assay; type: functional, cell-based; details: DOHH-2, 72 h
[27] = Oral bioavailability in ICR mouse at 25 mg/kg measured upto 24 hrs by LC-MS/MS analysis; type: ADME, organism-based; details: in vivo
TMD8 [28] = test: Induction of apoptosis in human TMD8 cells assessed as viable cells at 2 uM incubated for 24 hrs by Annexin V-FITC/PI staining based flow cytometric analysis (reference value: 96.4%); type: functional; details: read-out: Activity
RS4-11 = test: Antiproliferative activity against human RS4-11 cells incubated for 72 hrs by luminescence assay; type: functional, cell-based; details: RS4-11, 72 h
[29] = Metabolic stability in dog liver microsomes assessed as intrinsic clearance measured for 75 to 130 mins by LC-MS/MS analysis; type: ADME, Canis lupus familiaris, Microsome; details: time 75-130 min, read-out: CLH
MDA-MB-231 [30] = test: Antiproliferative activity against human MDA-MB-231 cells incubated for 72 hrs by luminescence assay; type: functional, cell-based; details: MDA-MB-231, 72 h
[31] = MRT(0 to infinity) in CB.17 SCID mouse xenografted with human TMD8 cells at 100 mg/kg, po measured upto 24 hrs by LC-MS/MS analysis; type: ADME, organism-based; details: in vivo
[32] = MRT in ICR mouse at 25 mg/kg, po measured upto 24 hrs by LC-MS/MS analysis; type: ADME, organism-based; details: in vivo
TMD8 [33] = test: Antiproliferative activity against human TMD8 cells incubated for 72 hrs by luminescence assay; type: functional, cell-based; details: TMD8, 72 h

IC50 (Histone deacetylase 8): > 10000 nM
IC50 (SK-OV-3): 3170 nM
half-life [3]: 4.4 h
half-life [4]: 17.9 h
IC50 (Histone deacetylase 2): 168 nM
solubility [7]: 5 ng/mL (≈ 0.0121 µM)
microsomal CLint [8]: 13.2 µL/min/mg
AUC(0-t) at 24 h [9]: 9710 ng·h/mL
microsomal CLint [11]: 1.7 µL/min/mg
AUC(0-inf) [12]: 9730 ng·h/mL
IC50 (A549 [14]): 2850 nM
AUC(0-inf) [15]: 9770 ng·h/mL
Cmax [16]: 10700 ng/mL
AUC(0-inf) [18]: 5180 ng·h/mL
MRT last at 24 h [19]: 1.43 h
half-life [20]: 1.75 h
Cmax [21]: 14700 ng/mL
IC50 (HCT-116): 1160 nM
microsomal CLint [23]: 14.1 µL/min/mg
MRT last at 24 h [24]: 0.75 h
Cmax [25]: 3100 ng/mL
bioavailability [27]: 39.9%
IC50 (RS4-11): 470 nM
microsomal CLint [29]: 1.32 µL/min/mg
IC50 (MDA-MB-231 [30]): 2290 nM
MRT inf [31]: 1.51 h
MRT [32]: 2.6 h
SMILES: Nc1ccccc1NC(=O)c1ccc(CN2CCC/C(=C\c3ccccn3)C2=O)cc1
Activity (TMD8 [1]): 2.32%
IC50 (HuT78): 800 nM
Activity (TMD8 [2]): 3.64%
Activity (TMD8 [5]): 7.94%
Activity (TMD8 [6]): 2.29%
Activity (TMD8 [10]): 6.52%
Activity (A549 [13]): 48.53%
Activity (TMD8 [17]): 24.8%
Activity (TMD8 [22]): 8.19%
Activity (MDA-MB-231 [26]): 64.94%
IC50 (DOHH-2): 390 nM
viability at 2 µM (TMD8 [28]): 75.3%
IC50 (TMD8 [33]): 310 nM
